Measured values as given in patent publication US8222264B2, “Substituted amino-quinazolinones, medicaments comprising said compound, their use and their method of manufacture” (Boehringer Ingelheim International GmbH, priority 2007, dated 2012).

Target: T1, β-secretase (ectodomain of BACE, amino acids 1-454) (Homo sapiens, UniProt P56817)
T1 construct: poly-histidine; made in house; host or cells: HEK293/APP/BACEect. cells; unpurified culture supernatant in OptiMEM used as enzyme source
Experiment: β-secretase activity assay, fluorescence-quenched Cy3/Cy5Q peptide substrate
Type: biochemical
Conditions: 100 μM test compound; positive control minus negative control = 100%; values above 100% adjusted to 100%
Method: To calculate the IC50 value of a substance different amounts of substance are incubated with the β-secretase in an assay. The IC50 value of a compound is defined as the concentration of substance at which a 50% reduction in the detected signal is measured, compared with the mixture without the test compound. Substances are evaluated as inhibiting β-secretase if under these conditions their IC50 value is less than 50 μM, preferably less than 10 μM and particularly preferably less than 1 μM.
In detail, an assay for detecting β-secretase activity may be as follows: The ectodomain of BACE (amino acids 1-454) fused to the recognition sequence for an anti-Myc antibody and a poly-histidine is secreted overnight by HEK293/APP/BACEect. cells in OptiMEM® (Invitrogen). A 10 μl aliquot of this cell culture supernatant is used as the enzyme source. The enzyme is stable over more than 3 months' storage at 4° C. or −20° C. in OptiMEM®. The substrate used is a peptide with the amino acid sequence SEVNLDAEFK, to which the Cy3 fluorophore (Amersham) is coupled N-terminally and the Cy5Q fluorophore (Amersham) is coupled C-terminally. The substrate is dissolved in DMSO in a concentration of 1 mg/ml and used in the experiment in a concentration of 1 μM. The test mixture also contains 20 mM NaOAc, pH 4.4 and a maximum of 1% DMSO. The test is carried out in a 96-well plate in a total volume of 200 μl for 30 minutes at 30° C. The cleaving of the substrate is recorded kinetically in a fluorimeter (ex: 530 nm, em: 590 nm). The assay is started by adding the substrate.
Mixtures without enzyme (i.e. negative control) or without inhibitor (i.e. positive control) are included in each plate as controls.
The activity of the positive control (minus the negative control=background) is set to 100% and activity in the presence of test compound is expressed relative to these 100%. […]
IC50 can be calculated with Graph Pad Prism or other suited software setting the positive control minus the negative control as 100. […]

T1 sequence (P56817 22-454): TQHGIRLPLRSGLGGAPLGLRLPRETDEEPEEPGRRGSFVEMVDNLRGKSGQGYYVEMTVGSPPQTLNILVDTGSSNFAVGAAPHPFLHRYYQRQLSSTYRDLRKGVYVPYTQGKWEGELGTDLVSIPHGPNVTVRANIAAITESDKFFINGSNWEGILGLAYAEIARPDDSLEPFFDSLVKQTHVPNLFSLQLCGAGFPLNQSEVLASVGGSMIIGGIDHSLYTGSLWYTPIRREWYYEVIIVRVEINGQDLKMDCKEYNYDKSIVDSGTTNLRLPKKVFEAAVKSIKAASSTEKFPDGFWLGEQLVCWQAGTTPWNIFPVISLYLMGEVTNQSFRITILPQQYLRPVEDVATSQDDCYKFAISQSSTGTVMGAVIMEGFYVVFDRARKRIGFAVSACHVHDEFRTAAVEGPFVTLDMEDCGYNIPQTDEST

In the case of `CN(C(=O)CCC(C1CCCCC1)n1c(N)nc2ccc(Br)cc2c1=O)C1CCCCC1` (stereo not drawn) [Example 3], the inhibition at 100 µM is reported as 91%.
Work on `CN(C(=O)CC[C@@H](C1CCCCC1)n1c(N)nc2ccc(Oc3ccccc3)cc2c1=O)C1CCCCC1` [Example 1] yielded an inhibition at 100 µM of 98%.
Compound `CCOc1ccccc1-c1ccc2nc(N)n(C(CCC(=O)N(C)C3CCCCC3)C3CCCCC3)c(=O)c2c1` (stereo not drawn) [Example 2] has an inhibition at 100 µM of 81%.
